Structures can show the parent of a compound that is named as a salt. Some results are limits rather than exact numbers.

The first assay concerns RSV (Group A, Long Strain). The experiment in a line: Cytopathetic effect (CPE) protection antiviral assay, MTT readout. Format: cell-based. The note with it: human respiratory syncytial virus, HEp-2, 96 h, HEp-2 cells, 0.2 MOI RSV, 4 days incubation, protection from CPE (Table 1); read-out: RSV EC50. The protocol: HEp-2 cells and RSV (Group A, Long Strain) were obtained from the American Type Culture Collection (Manassas, Va.).
A cytopathetic effect (CPE) protection assay was performed to determine the ability of a compound to protect the cells from viral infection and thus the CPE induced by viral infection. 96-Well plates were first seeded with […] per well in Dulbecco's modified Eagle's medium (DMEM) containing 10% fetal bovine serum (FBS). One day after the cells were seeded, they were preincubated with serial dilutions of compounds prepared in 100 μL assay medium (DMEM mixed with F12 medium at a 1:1 ratio, supplemented with 2% FBS and 1 mM sodium pyruvate) for 1 hour at 37° C. 100 μL of assay medium containing 0.2 multiplicity of infection (MOI) of RSV was then added to each well of cells. In addition to wells containing infected cells incubated with compounds, each plate also contained replicates of two kinds of controls: (1) Virus control contained cells infected with 0.2 MOI of RSV in assay medium, (2) Uninfected cell control contained cells incubated with assay medium only. After 4 days of incubation at 37° C., the viability of cells was assessed using MTT (Thiazolyl blue tetrazolium bromide, Sigma). A stock solution of MTT, at a concentration of 4 mg/mL in phosphate-buffered saline, was added to all wells at 25 μL per well. Plates were further incubated for 4 hours, and each well was then treated with 50 μL of a solution containing 20% sodium dodecyl sulfate (SDS) and 0.02 N HCl. After an overnight incubation, the plates were measured on a BioTek® microtiter plate reader at wavelengths of 570 nm and 650 nm. The MTT detection is based on the fact that viable (uninfected) cells can reduce the tetrazolium salts into colored formazan products, which can then be quantitated by spectrometry. Based on the spectrometric absorbance of each sample, the percent of protection from CPE, which is an indicator of protection from viral infection, can be calculated for each compound and the 50% effective concentrations (EC50) can be calculated using a nonlinear regression curve fitting equation provided by the GraphPad Prism® 4 software.
Compounds were tested to determine both their antiviral and toxicity to determine their therapeutic window. Determination of the EC50 and TD50 of these active compounds were repeated one additional time to confirm the window.
For the molecule `CC(C)C1CN(c2cnc3ccccc3n2)CCN1/C(=N\C#N)Nc1ccc2c(c1)OCO2` (centres unmarked) [Example 1.14, N-(1,3-benzodioxol-5-yl)-N′-cyano-2-isopropyl-4-(quinoxalin-2-yl)piperazine-1-carboximidamide], the concentration for a half-maximal effect (EC50) (usually the concentration that produces a half-maximal response) is above 10 µM. Take `CC(C)C1CN(c2cnc3ccccc3n2)CCN1/C(=N\C#N)Nc1ccc(Cl)cc1` (centres unmarked) [Example 1.15, N-(4-chlorophenyl)-N′-cyano-2-isopropyl-4-(quinoxalin-2-yl)piperazine-1-carboximidamide]: the EC50 was above 10 µM. Regarding `Cc1ccc(N/C(=N/C#N)N2CCN(c3cnc4ccccc4n3)CC2C(C)C)cc1` (centres unmarked) [Example 1.16, N′-cyano-2-isopropyl-N-(4-methylphenyl)-4-(quinoxalin-2-yl)piperazine-1-carboximidamide], the EC50 is above 10 µM.

As for `Cc1cccc(C)c1N/C(=N/C#N)N1CCN(c2cnc3ccccc3n2)CC1C(C)C` (centres unmarked) [Example 1.17, N′-cyano-N-(2,6-dimethylphenyl)-2-isopropyl-4-(quinoxalin-2-yl)piperazine-1-carboximidamide], the half-maximal effective concentration (EC50) amounted to 0.54 µM. Consider `COc1ccccc1N/C(=N/C#N)N1CCN(c2cnc3ccccc3n2)CC1C(C)C` (centres unmarked) [Example 1.18, N′-cyano-2-isopropyl-N-(2-methoxyphenyl)-4-(quinoxalin-2-yl)piperazine-1-carboximidamide], for which the concentration giving a half-maximal response (EC50) came to 1.16 µM. `CC(C)C1CN(c2cnc3ccccc3n2)CCN1/C(=N\C#N)Nc1cccc(F)c1` (centres unmarked) [Example 1.20, N′-cyano-N-(3-fluorophenyl)-2-isopropyl-4-(quinoxalin-2-yl)piperazine-1-carboximidamide]: the EC50 is above 10 µM. Regarding `CC(C)C1CN(c2cnc3ccccc3n2)CCN1/C(=N\C#N)Nc1ccccc1F` (centres unmarked) [Example 1.21, N′-cyano-N-(2-fluorophenyl)-2-isopropyl-4-(quinoxalin-2-yl)piperazine-1-carboximidamide], the half-maximal effective concentration (EC50) was 2.07 µM.

As to `Cc1cccc(N/C(=N/C#N)N2CCN(c3cnc4ccccc4n3)CC2C(C)C)c1` (centres unmarked) [Example 1.22, N′-cyano-2-isopropyl-N-(3-methylphenyl)-4-(quinoxalin-2-yl)piperazine-1-carboximidamide], the 50% effective concentration (EC50) was found to be 0.4 µM. As for `CC(C)C1CN(c2cnc3ccccc3n2)CCN1/C(=N\C#N)Nc1ccc(F)cc1` (centres unmarked) [Example 1.23, N′-cyano-N-(4-fluorophenyl)-2-isopropyl-4-(quinoxalin-2-yl)piperazine-1-carboximidamide], the EC50 was above 10 µM. Turning to `CC(C)C1CN(c2cnc3ccccc3n2)CCN1/C(=N\C#N)Nc1ccc(C(F)(F)F)cc1` (centres unmarked) [Example 1.24, N′-cyano-2-isopropyl-4-(quinoxalin-2-yl)-N-[4-(trifluoromethyl)phenyl]piperazine-1-carboximidamide], the EC50 is above 6.68 µM.

`CC(C)C1CN(c2cnc3ccccc3n2)CCN1/C(=N\C#N)Nc1cccc(C(F)(F)F)c1` (centres unmarked) [Example 1.25, N′-cyano-2-isopropyl-4-(quinoxalin-2-yl)-N-[3-(trifluoromethyl)phenyl]piperazine-1-carboximidamide]: the EC50 was above 7.29 µM. For the molecule `CC(C)c1ccccc1N/C(=N/C#N)N1CCN(c2cnc3ccccc3n2)CC1C(C)C` (centres unmarked) [Example 1.26, N′-cyano-2-isopropyl-N-(2-isopropylphenyl)-4-(quinoxalin-2-yl)piperazine-1-carboximidamide], the EC50 is above 10 µM. Turning to `CC(C)C1CN(c2cnc3ccccc3n2)CCN1/C(=N\C#N)Nc1ccccc1OC(F)(F)F` (centres unmarked) [Example 1.27, N′-cyano-2-isopropyl-4-(quinoxalin-2-yl)-N-[2-(trifluoromethoxy)phenyl]piperazine-1-carboximidamide], the EC50 was above 10 µM.

Turning to `CC(C)C1CN(c2cnc3ccccc3n2)CCN1/C(=N\C#N)Nc1cccc(Cl)c1` (centres unmarked) [Example 1.28, N-(3-chlorophenyl)-N′-cyano-2-isopropyl-4-(quinoxalin-2-yl)piperazine-1-carboximidamide], the EC50 is 3.1 µM. As for `Cc1c(F)cccc1N/C(=N/C#N)N1CCN(c2cnc3ccccc3n2)CC1C(C)C` (centres unmarked) [Example 1.29, N′-cyano-N-(3-fluoro-2-methylphenyl)-2-isopropyl-4-(quinoxalin-2-yl)piperazine-1-carboximidamide], the EC50 is above 3.16 µM. As to `CC(C)C1CN(c2cnc3ccccc3n2)CCN1/C(=N\C#N)Nc1ccc(F)cc1Cl` (centres unmarked) [Example 1.30, N-(2-chloro-4-fluorophenyl)-N′-cyano-2-isopropyl-4-(quinoxalin-2-yl)piperazine-1-carboximidamide], the half-maximal effective concentration (EC50) is above 10 µM. Regarding `Cc1ccc(F)cc1N/C(=N/C#N)N1CCN(c2cnc3ccccc3n2)CC1C(C)C` (centres unmarked) [Example 1.31, N′-cyano-N-(5-fluoro-2-methylphenyl)-2-isopropyl-4-(quinoxalin-2-yl)piperazine-1-carboximidamide], the EC50 was 2 µM.

For the molecule `Cc1cc(F)ccc1N/C(=N/C#N)N1CCN(c2cnc3ccccc3n2)CC1C(C)C` (centres unmarked) [Example 1.32, N′-cyano-N-(4-fluoro-2-methylphenyl)-2-isopropyl-4-(quinoxalin-2-yl)piperazine-1-carboximidamide], the half-maximal effective concentration (EC50) is above 10 µM.

Turning to `Cc1cccc(F)c1N/C(=N/C#N)N1CCN(c2cnc3ccccc3n2)CC1C(C)C` (centres unmarked) [Example 1.33, N′-cyano-N-(2-fluoro-6-methylphenyl)-2-isopropyl-4-(quinoxalin-2-yl)piperazine-1-carboximidamide], the concentration for a half-maximal effect (EC50) is 0.3 µM.

For the molecule `Cc1cc(F)c(F)cc1N/C(=N/C#N)N1CCN(c2cnc3ccccc3n2)CC1C(C)C` (centres unmarked) [Example 1.34, N′-cyano-N-(4,5-difluoro-2-methylphenyl)-2-isopropyl-4-(quinoxalin-2-yl)piperazine-1-carboximidamide], the half-maximal effective concentration (EC50) was above 3.1 µM.

`Cc1ccccc1CN/C(=N/C#N)N1CCN(c2cnc3ccccc3n2)CC1C(C)C` (centres unmarked) [Example 1.35, N′-cyano-2-isopropyl-N-(2-methylbenzyl)-4-(quinoxalin-2-yl)piperazine-1-carboximidamide]: the concentration giving a half-maximal response (EC50) is above 10 µM.

For the molecule `CC(C)C1CN(c2cnc3ccccc3n2)CCN1/C(=N\C#N)Nc1cc(C(C)(C)C)nn1C` (centres unmarked) [Example 1.36, N-(3-tert-butyl-1-methyl-1H-pyrazol-5-yl)-N′-cyano-2-isopropyl-4-(quinoxalin-2-yl)piperazine-1-carboximidamide], the concentration giving a half-maximal response (EC50) is above 6.6 µM. In the case of `Cc1ccccc1N/C(=N/C#N)N1CCN(c2cnc3ccccc3n2)CC1CC(C)C` (centres unmarked) [Example 1.37, N′-cyano-2-isobutyl-N-(2-methylphenyl)-4-(quinoxalin-2-yl)piperazine-1-carboximidamide], the half-maximal effective concentration (EC50) worked out at 0.4 µM.

Take `Cc1cccc(N/C(=N/C#N)N2CCN(c3cnc4ccccc4n3)CC2CC(C)C)c1` (centres unmarked) [Example 1.38, N′-cyano-2-isobutyl-N-(3-methylphenyl)-4-(quinoxalin-2-yl)piperazine-1-carboximidamide]: the EC50 is above 3.1 µM. Consider `CC(C)CC1CN(c2cnc3ccccc3n2)CCN1/C(=N\C#N)Nc1ccccc1F` (centres unmarked) [Example 1.39, N′-cyano-N-(2-fluorophenyl)-2-isobutyl-4-(quinoxalin-2-yl)piperazine-1-carboximidamide], for which the EC50 was above 10 µM.

Still in this assay, the particulars now being: human respiratory syncytial virus, HEp-2, 96 h, read-out: RSV EC50.
For the molecule `Cc1ccccc1N/C(=N/C#N)N1CCN(c2cnc3ccccc3n2)C[C@H]1C(C)C` [Example 1.12, (2R)—N′-cyano-2-isopropyl-N-(2-methylphenyl)-4-(quinoxalin-2-yl)piperazine-1-carboximidamide trifluoroacetate], the 50% effective concentration (EC50) was above 32 µM.

The record behind these values is US10112911B2, “Substituted cyanoguanidines as oral anti-virals” (Abbvie Inc, priority 2012, dated 2018).
